# Reference: patent US20100317850A1 (priority 2008, published 2010)
# System: Aβ42 production
# Assay: Quantification of Aβ peptide in culture of neurons from rat fetus brain (Aβ ELISA)
# Format: cell-based
# Settings: Neuron, 72 h; rat primary neuronal culture (cerebral cortex, embryonic day 18 Wistar rats); medium collected three days after addition of the compound; Aβx-42 ELISA; read-out: Aβ42 production reducing effect IC50
# Outline: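 Primary cortical neurons from embryonic day 18 Wistar rats were cultured 4 days, then exposed to compound in Neurobasal/B27 without 2-ME, final DMSO ≤1%. After three days, medium was collected and Aβx-42 measured undiluted by sandwich ELISA.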
row,Compound,IC50
1,"CO[C@@H]1CC[C@]2(c3cc(NC(=O)c4cnc(C(F)F)cn4)ccc3F)N=C(N)SC[C@@H]2C1 (relative stereo) [Example 207, N-[3-((4aR*,6R*,8aS*)-2-amino-6-methoxy-4,4a,5,6,7,8-hexahydrobenzo[d][1,3]thiazin-8a-yl)-4-fluorophenyl]-5-difluoromethylpyrazine-2-carboxamide]",3 nM
2,"N#Cc1ccc(C(=O)Nc2ccc(F)c([C@]34CC[C@H](F)C[C@H]3CSC(N)=N4)c2)nc1 (relative stereo) [Example 215, N-[3-((4aR*,6S*,8aS*)-2-amino-6-fluoro-4,4a,5,5,6,7,8-hexahydrobenzo[d][1,3]thiazin-8a-yl)-4-fluorophenyl]-5-cyanopyridine-2-carboxamide]",10 nM
3,"CO[C@H]1C[C@H]2CSC(N)=N[C@@]2(c2cc(-c3cccnc3F)ccc2F)C1 (relative stereo) [Example 243, (±)-(4aR*,6S*,7aS*)-7a-[2-Fluoro-5-(2-fluoro-pyridin-3-yl)phenyl-6-methoxy-4,4a,5,6,7,7a-hexahydrocyclopenta[d][1,3]thiazin-2-ylamine]",69 nM
4,"NC1=N[C@@]2(c3cc(NC(=O)c4ccc(Cl)cn4)ccc3F)CCCC[C@H]2CS1 (single isomer, unassigned) [Example 3, (+)-N-[3-((4aR.*,8aS*)-2-amino-4,4a,5,6,7,8-hexahydrobenzo[d][1,3]thiazin-8a-yl)-4-fluorophenyl]-5-chloropyridine-2-carboxamide]",9 nM
5,"NC1=N[C@@]2(c3cc(NC(=O)c4cnc(OC(F)F)cn4)ccc3F)CCC[C@H]2CS1 (single isomer, unassigned) [Example 20, N-[3-((4aR*,7aS*)-2-amino-4a,5,6,7-tetrahydro-4,1-cyclopenta[d][1,3]thiazin-7a-yl-4-fluorophenyl]-5-difluoromethoxypyrazine-2-carboxamide]",5 nM
6,"N#Cc1ccc(C(=O)Nc2ccc(F)c([C@]34CCC[C@H]3CSC(N)=N4)c2)nc1 (single isomer, unassigned) [Example 22, N-[3-((4aR*,7aS*)-2-amino-4a,5,6,7-tetrahydro-4H-cyclopenta[d][1,3]thiazin-7a-yl)-4-fluorophenyl]-5-cyanopyridine-2-carboxamide]",5 nM
7,"NC1=N[C@@]2(c3cc(NC(=O)c4cnc(OCF)cn4)ccc3F)COC[C@H]2CS1 (single isomer, unassigned) [Example 27, N-[3-((7S*,7aS*)-2-amino-4a,5-dihydro-4H-furo[3,4-d][1,3]thiazin-7a-yl)-4-fluorophenyl]-5-fluoromethoxypyrazine-2-carboxamide]",11 nM
8,"N#Cc1ccc(C(=O)Nc2ccc(F)c([C@]34CCOC[C@H]3CSC(N)=N4)c2)nc1 (single isomer, unassigned) [Example 28, N-[3-((4aS*,8aS*)-2-amino-4a,7,8-tetrahydro-4H-6-oxa-3-thia-1-azanaphthalen-8a-yl)-4-fluorophenyl]-5-cyanopyridine-2-carboxamide]",12 nM
9,"NC1=N[C@@]2(c3cc(NC(=O)c4cnc(Cl)cn4)ccc3F)CCCC[C@H]2CS1 (single isomer, unassigned) [Example 104, N-[3-((4aR*,8aS*)-2-amino-4,4a,5,6,7,8-hexahydrobenzo[d][1,3]thiazin-8a-yl)-4-fluorophenyl]-5-chloropyrazine-2-carboxamide]",212 nM
10,"NC1=N[C@@]2(c3cc(NC(=O)c4ncc(F)cc4F)ccc3F)CCCC[C@H]2CS1 (single isomer, unassigned) [Example 105, N-[3-((4aR*,8aS*)-2-amino-4,4a,5,6,7,8-hexahydrobenzo[d][1,3]thiazin-8a-yl)-4-fluorophenyl]-3,5-difluoropyridine-2-carboxamide]",121 nM
11,"NC1=N[C@@]2(c3cc(NC(=O)c4ccc(C(F)(F)F)cn4)ccc3F)CCCC[C@H]2CS1 (single isomer, unassigned) [Example 106, N-[3-((4aR*,8aS*)-2-amino-4,4a,5,6,7,8-hexahydrobenzo[d][1,3]thiazin-8a-yl)-4-fluorophenyl]-5-trifluoromethylpyridine-2-carboxamide]",88 nM
12,"COc1cnc(C(=O)Nc2ccc(F)c([C@]34CCCC[C@H]3CSC(N)=N4)c2)cn1 (single isomer, unassigned) [Example 107, N-[3-((4aR*,8aS*)-2-amino-4,4a,5,6,7,8-hexahydrobenzo[d][1,3]thiazin-8a-yl)-4-fluorophenyl]-5-methoxypyrazine-2-carboxamide]",17 nM
13,"NC1=N[C@@]2(c3cc(NC(=O)c4ccc(C#CC5CC5)cn4)ccc3F)CCC[C@H]2CS1 (single isomer, unassigned) [Example 132, N-[3-((4aR*,7aS*)-2-amino-4a,5,6,7-tetrahydro-4H-cyclopenta[d][1,3]thiazin-7a-yl)-4-fluorophenyl]-5-cyclopropylethynyl-pyridine-2-carboxamide]",44 nM
14,"NC1=N[C@@]2(c3cc(NC(=O)c4ccc(-c5nccs5)cn4)ccc3F)CCC[C@H]2CS1 (single isomer, unassigned) [Example 133, N-[3-((4aR*,7aS*)-2-amino-4a,5,6,7-tetrahydro-4H-cyclopenta[d][1,3]thiazin-7a-yl)-4-fluorophenyl]-5-thiazol-2-yl-pyridine-2-carboxamide]",63 nM
15,"CSc1cnc(C(=O)Nc2ccc(F)c([C@]34CCC[C@H]3CSC(N)=N4)c2)cn1 (single isomer, unassigned) [Example 135, N-[3-((4aR*,7aS*)-2-amino-4a,5,6,7-tetrahydro-4H-cyclopenta[d][1,3]thiazin-7a-yl)-4-fluorophenyl]-5-methylsulfanyl-pyrazine-2-carboxamide]",15 nM
16,"COCC#Cc1ccc(C(=O)Nc2ccc(F)c([C@]34CCC[C@H]3CSC(N)=N4)c2)nc1 (single isomer, unassigned) [Example 136, N-[3-((4aR*,7aS*)-2-amino-4a,5,6,7-tetrahydro-4H-cyclopenta[d][1,3]thiazin-7a-yl)-4-fluorophenyl]-5-(3-methoxypropyn-1-yl)-pyridine-2-carboxamide]",25 nM
17,"NC1=N[C@@]2(c3cc(NC(=O)c4nccs4)ccc3F)CCC[C@H]2CS1 (single isomer, unassigned) [Example 137, N-[3-((4aR*,7aS*)-2-amino-4a,5,6,7-tetrahydro-4H-cyclopenta[d][1,3]thiazin-7a-yl)-4-fluorophenyl]-thiazole-2-carboxamide]",47 nM
18,"NC1=N[C@@]2(c3cc(NC(=O)c4ccc(C(F)F)cn4)ccc3F)CCC[C@H]2CS1 (single isomer, unassigned) [Example 141, N-[3-((4aR*,7aS*)-2-amino-4a,5,6,7-tetrahydro-4H-cyclopenta[d][1,3]thiazin-7a-yl)-4-fluorophenyl]-5-difluoromethylpyridine-2-carboxamide]",16 nM
19,"NC1=N[C@@]2(c3cc(NC(=O)c4ccc(Br)cn4)ccc3F)CCOC[C@H]2CS1 (single isomer, unassigned) [Example 142, N-[3-((4aS*,8aS*)-2-amino-4a,5,7,8-tetrahydro-4H-6-oxa-3-thia-1-azanaphthalen-8a-yl)-4-fluorophenyl]-5-bromopyridine-2-carboxamide]",10 nM
20,"NC1=N[C@@]2(c3cc(NC(=O)c4ncc(F)cc4F)ccc3F)CCC[C@H]2CS1 (single isomer, unassigned) [Example 168, N-[3-((4aR*,7aS*)-2-amino-4a,5,6,7-tetrahydro-4H-cyclopenta[d][1,3]thiazin-7a-yl)-4-fluorophenyl]-3,5-difluoropyridine-2-carboxamide]",16 nM
21,"NC1=N[C@@]2(c3cc(NC(=O)c4ccc(C(F)(F)F)cn4)ccc3F)CCC[C@H]2CS1 (single isomer, unassigned) [Example 169, N-[3-((4aR*,7aS*)-2-amino-4a,5,6,7-tetrahydro-4H-cyclopenta[d][1,3]thiazin-7a-yl)-4-fluorophenyl]-5-trifluoromethylpyridine-2-carboxamide]",27 nM
22,"NC1=N[C@@]2(c3cc(NC(=O)c4ncccc4C(F)(F)F)ccc3F)CCC[C@H]2CS1 (single isomer, unassigned) [Example 170, N-[3-((4aR*,7aS*)-2-amino-4a,5,6,7-tetrahydro-4H-cyclopenta[d][1,3]thiazin-7a-yl)-4-fluorophenyl]-3-trifluoromethylpyridine 2-carboxamide]",210 nM
23,"NC1=N[C@@]2(c3cc(NC(=O)c4ncccc4F)ccc3F)CCC[C@H]2CS1 (single isomer, unassigned) [Example 171, N-[3-((4aR*,7aS*)-2-amino-4a,5,6,7-tetrahydro-4H-cyclopenta[d][1,3]thiazin-7a-yl)-4-fluorophenyl]-3-fluoropyridine-2-carboxamide]",89 nM
24,"NC1=N[C@@]2(c3cc(NC(=O)c4ccc(Br)cn4)ccc3F)CCC[C@H]2CS1 (single isomer, unassigned) [Example 172, N-[3-((4aR*,7aS*)-2-amino-4a,5,6,7-tetrahydro-4H-cyclopenta[d][1,3]thiazin-7a-yl)-4-fluorophenyl]-5-bromopyridine-2-carboxamide]",7 nM
25,"NC1=N[C@@]2(c3cc(NC(=O)c4ncccc4Br)ccc3F)CCC[C@H]2CS1 (single isomer, unassigned) [Example 173, N-[3-((4aR*,7aS*)-2-amino-4a,5,6,7-tetrahydro-4H-cyclopenta[d][1,3]thiazin-7a-yl)-4-fluorophenyl]-3-bromopyridine-2-carboxamide]",72 nM
26,"COc1ccc(C(=O)Nc2ccc(F)c([C@]34CCC[C@H]3CSC(N)=N4)c2)nc1 (single isomer, unassigned) [Example 174, N-[3-((4aR*,7aS*)-2-amino-4a,5,6,7-tetrahydro-4H-cyclopenta[d][1,3]thiazin-7a-yl)-4-fluorophenyl]-5-methoxypyridine-2-carboxamide]",11 nM
